Data as given in patent US11491105B2, “Methods of treating microbial infections, including mastitis” (priority 2013, dated 2022).

Experiments:
[1] = tested on: Staphylococcus isolates (methicillin-sensitive and methicillin-resistant); test: Minimum inhibitory concentration assay (Example 1); type: cell-based; details: methicillin-resistant isolates
Protocol: Forty-two isolates of Staphylococcus of varying species and strain type were collected from isolate collections. Biochemical testing including coagulase, latex agglutination testing for protein A, Vogues-Proskauer tests and resistance to polymyxin B were used to identify the species of Staphylococcus. All isolates were also screened for resistance to various antimicrobials commonly used for the treatment of infections. This was performed using the disk diffusion method and resistance standards as outlined by the CLSI. The following antimicrobials were used: amoxicillin-clavulanic acid (30 μg), cephalothin (30 μg), clindamycin (2 μg), enrofloxacin (5 μg), erythromycin (15 μg), gentamicin (10 μg), imipenem (10 μg), oxacillin (1 μg), penicillin G (10 units), tetracycline (30 μg), 1:19 trimethoprim-sulfamethoxazole (25 μg) and vancomycin (30 μg).
Minimum inhibitory concentration tests were performed according to CLSI Standards (CLSI 2012). 90 μL of one of the test compound solutions, or ampicillin, was added to the end column of a 96 well plate that contained 90 μL of CAMHB in each well. The solutions were then serially diluted across the row, leaving 2 columns for positive and negative controls (FIG. 2). A bacterial suspension was prepared by adding fresh colonies obtained from an overnight culture on Sheep Blood Agar (SBA) to a 9.1 g/L saline solution. This suspension was adjusted to a concentration of between 4×10^8 and 5×10^8 CFU/mL. Concentration of the suspension was determined by measuring optical density (OD) using a spectrophotometer at a wavelength of 600 nm where the correct concentration was determined to have an optical density of between 1.00 and 1.20. 1 mL of this suspension was added to 9 mL of saline before being added to all wells, excluding the negative control wells, in 10 μL volumes giving a final concentration of between 4×10^5 and 5×10^5 CFU/mL in each well. The tests were then incubated for 24 hours at 37° C. and then assessed both visually and using OD readings from a microplate reader at a wavelength of 600 nm. These tests were performed in duplicate but repeated if discrepancies were observed.
The minimum inhibitory concentration (MIC) was determined to be the lowest concentration of antibiotic that prevented growth of bacteria both visually and using OD readings. Direct statistical comparisons between the test compounds and ampicillin could not be performed in light of confidential information restrictions, such as restrictions on disclosure of information relating to the compound structure, such as molecular weight. Instead, MIC values were collated and used to determine the lowest concentration of each compound that was effective against 50% and 90% of isolates, referred to as the MIC50 and MIC90 respectively. These values as well as the range of MIC values were then used for direct comparisons between test compounds and for general comparisons with ampicillin.

MRSA 9 = test: Microdilution time-kill assay; type: cell-based, Staphylococcus aureus; details: 1×MIC; increase evident after 24 hours
Protocol: Following assessment of MIC and MBC results, two compounds were chosen for analysis using microdilution time-kill assays, LP 1369 and LP 6315 and these were compared to ampicillin. Time-kill assays were performed according to the M26-A guidelines of the CLSI, with modifications. The test compounds and ampicillin were serial diluted in CAMHB across the rows of a 96 well plate and a bacterial suspension was prepared and added in the same manner as the MIC testing. […] The time points assessed were 0, 1, 2, 4, 8, 12, 24 and 48 hours after the addition of the bacterial suspension to the wells. Each test compound was tested in triplicate while ampicillin was tested in duplicate and this test was independently repeated. The bacterial strains used for the microdilution assays were chosen based on bactericidal activity evident during MBC testing. One strain from each of the categories of Staphylococcus in the isolate collection (methicillin-sensitive, methicillin resistant and coagulase negative) were selected as well as the ATCC reference strain for comparison. These strains were strains MSS 1, MSS 11, MRSA 9 and the ATCC 49775 reference strain.

red blood cells = test: Eukaryotic cell toxicity testing (erythrocyte haemolysis); type: cell-based; details: 2% blood cell solution, 37° C., one hour
Protocol: Erythrocyte haemolysis was used in order to test the toxicity of all five compounds to eukaryotic cells. Blood samples were washed using 9.1 g/L saline solution and centrifuged at 2500 rpm for 10 minutes. This process was repeated until cellular debris and partially lysed cells were removed from solution. 2 mL of the remaining blood cells were suspended in 98 mL of 9.1 g/L saline solution to produce a 2% blood cell solution, which was dispensed in 90 μL volumes into the wells of a 96 well plate. The compound solutions as well as chloramphenicol were prepared from stock solution to a concentration of 256 μg/mL (as described above). Chloramphenicol was used as a negative control for erythrocyte lysis while a ready to use solution of amphotericin B was used as a positive control. 90 μL of the compounds and controls were added to the final well in different rows. These compounds were serially diluted across the row in order to test the different concentrations of antimicrobials. Wells containing only 2% blood solution were also used to assess variation between readings from different columns on the 96 well plates. These tests were incubated at 37° C. for one hour and then assessed for lysis both visually and using a microplate reader to measure optical density at 600 nm wavelengths. Each test was performed in duplicate and then repeated in quadruplicate in order to ensure accuracy.

[2] = Residue depletion of LP1369 in milk of treated mastitis quarters (Example 9); design: species or system lactating dairy cows; details: in vivo
Protocol: Data on concentrations of LP1369 in milk from 6 quarters for IVP 1 and IVP 2 treated at 6 occasions (6 consecutive milkings) after treatment was provided by the analytical laboratory at the School of Pharmacy, University of South Australia, Adelaide, SA, Australia. The limit of quantification (LoQ) of the method for LP1369 in milk was 0.088 mg/L. The Maximum Residues level (MRL) for LP1369 is 0.010 mg/kg according to the APVMA, December 2013, Agricultural and Veterinary Chemicals Code Instrument No. 4 (MRL Standard) 2012.
In milk samples where LP1369 levels were below the LoQ, LP1369 concentration was set to 0.0001 mg/L.
Therefore, the concentrations of LP1369 in whole milk were log-transformed before calculating means and standard deviations (weighted by the volume of milk produced by each animal) for each time point, using Microsoft Excel 2010.
The determination of the depletion of any substance from milk is affected by the size of the population studied. As the number of sampled cows in this study was small, the g′ factor (a factor that provides a 99% confidence interval so that results are likely to be representative of the population) was applied to the analysis. The possibility of dispersed data was minimised by fixing the g′ factor for a population of 20 animals.
The following assumptions were made. […]

[3] = APVMA, December 2013, MRL Standard 2012; cited from earlier work

Row | SMILES | MIC50 and MIC90 values compared with ampicillin [1] | growth at 1×MIC (MRSA 9) | concentration at which lysis was most visually evident (red blood cells) | concentration range in which some lysis of cells was observed (red blood cells) | clearance from treated quarters with mastitis (in words) [2] | Maximum Residues level (MRL) [3]
1 | CO[C@@H]1[C@@H](OC)[C@H](C)[C@@](O)(CC(=O)O)O[C@H]1[C@H](C)[C@H]1O[C@@]2(CC[C@@](C)([C@H]3CC[C@@](C)([C@@H]4O[C@@H]([C@H]5O[C@](C)(O)[C@H](C)C[C@@H]5C)C[C@@H]4O[C@@H]4C[C@H](OC)[C@@H](OC)[C@H](C)O4)O3)O2)C[C@H](O)[C@H]1C.N [LP 6315, Maduramicin] | considerably lower than ampicillin | after 48 hours this growth was no longer observed | – | – | – | –
2 | CC[C@@H](C(=O)[C@@H](C)[C@@H](O)[C@H](C)CCc1ccc(C)c(O)c1C(=O)O)[C@H]1O[C@](CC)([C@H]2CC[C@](O)(CC)[C@H](C)O2)C[C@@H]1C [LP 1369, Lasalocid] | considerably lower than ampicillin | – | 64000 ng/mL | 32000 to 128000 ng/mL | cleared rapidly | 0.010 mg/kg
